From ChEMBL document CHEMBL1201862, “PubChem BioAssay data set” (2004) come the findings set out here.

Some test systems named below: CAKI-1; DLD-1; HCC 2998; HOP-92; HT-29; KM-20L2; LOX IMVI; M19-MEL; NCI-H23; OVCAR-8; RPMI-8226; SF-295; SN12C; SNB-19; UACC-62; A498; Hs-578T; MCF7; PC-3; T47D.
Holding throughout (assay): NCI anticancer screen, dose series, 48 h

Each structure is given as a SMILES string.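 Compound exposure: 48 hours, 5 concentrations, 96-well plates. GI50 = concentration required for 50% inhibition of growth.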 Active and inactive are the calls of the source. Cut-off read from the data, not from the text of the source: active = GI50 up to about 1.1 µM and inactive = higher.

For `C1OC1C1CO1` (configuration not stated), the GI50 is > 100 µM (inactive) in the assay with CAKI-1; > 100 µM (inactive) with DLD-1; 96.4 µM (inactive) in the assay with HCC 2998; > 100 µM (inactive) in the assay with HOP-92; > 100 µM (inactive) in the assay on HT-29; 98.2 µM (inactive) with KM-20L2. Also, the GI50 in the assay with LOX IMVI was 21.1 µM (inactive); with M19-MEL, 58.9 µM (inactive); in the assay with NCI-H23 it was 18.1 µM (inactive); with OVCAR-8, > 100 µM (inactive); in the assay with RPMI-8226 it was > 100 µM (inactive); in the assay on SF-295, 10.3 µM (inactive). Moreover, the GI50 in the assay with SN12C was 93.1 µM (inactive); in the assay with SNB-19, > 100 µM (inactive); with UACC-62 it was 13.6 µM (inactive).
Take `N#Cc1cccc(C2C(=O)c3ccc(C(=O)c4ccc5c(c4)C(=O)N(c4ccc(Oc6ccc(N7C(=O)c8ccc(C(=O)c9ccc%10c(c9)C(=O)N(c9cccc(C#N)c9)C%10=O)cc8C7=O)cc6)cc4)C5=O)cc3C2=O)c1` (configuration not stated): the GI50 in the assay on DLD-1, in the assay with HCC 2998, in the assay on HOP-92, with HT-29, in the assay on KM-20L2 and in the assay on M19-MEL was > 100 µM (inactive) each time. The GI50 was > 100 µM (inactive) in the assay on NCI-H23; > 100 µM (inactive) in the assay with OVCAR-8; > 100 µM (inactive) in the assay with RPMI-8226; > 100 µM (inactive) in the assay with SF-295; > 100 µM (inactive) with SN12C; 82.2 µM (inactive) in the assay with SNB-19. The GI50 in the assay with UACC-62 is > 100 µM (inactive).
Turning to `CCCCNC(=S)Nn1c(-c2ccccc2)nc2ccccc2c1=O`, the GI50 in the assay with A498 is > 100 µM (inactive); with CAKI-1, > 100 µM (inactive); with DLD-1, > 100 µM (inactive); with HOP-92, 67.3 µM (inactive); in the assay with HT-29, 68.5 µM (inactive); in the assay with LOX IMVI, 74.1 µM (inactive). For the same molecule, the GI50 with M19-MEL was 92.5 µM (inactive); with NCI-H23, > 100 µM (inactive); in the assay with OVCAR-8, > 100 µM (inactive); in the assay on RPMI-8226 it was > 100 µM (inactive); with SF-295, > 100 µM (inactive); with SN12C, > 100 µM (inactive). Moreover, the GI50 with UACC-62 is > 100 µM (inactive).
As to `Cc1cc(C)c(S(=O)(=O)ONC(=O)OC(C)(C)C)c(C)c1`, the GI50 in the assay with A498, with CAKI-1, with DLD-1, in the assay with HCC 2998, in the assay on HOP-92 and in the assay with HT-29 was > 100 µM (inactive) throughout. For the same molecule, the GI50 with LOX IMVI, with M19-MEL, with NCI-H23, in the assay on OVCAR-8, in the assay on RPMI-8226 and in the assay with SF-295 was > 100 µM (inactive) throughout. Also, the GI50 with SN12C, in the assay with SNB-19 and in the assay on UACC-62 was > 100 µM (inactive) in each case.
On to `CCC(=O)N(O)C(C)(C)C`, for which the GI50 with CAKI-1, in the assay with DLD-1, with HCC 2998, in the assay with HOP-92, in the assay on HT-29 and in the assay with KM-20L2 was > 100 µM (inactive) throughout. The GI50 with LOX IMVI, in the assay on M19-MEL, with NCI-H23, in the assay with OVCAR-8, with RPMI-8226 and in the assay on SF-295 was > 100 µM (inactive) each time. Also, the GI50 in the assay on SN12C, with SNB-19 and in the assay on UACC-62 was > 100 µM (inactive) each time.
Consider `O=[N+]([O-])c1ccc2nc(/C(=N/Nc3ccccc3)C(O)c3ccco3)c(O)nc2c1` (configuration not stated), for which the GI50 in the assay with A498 was > 100 µM (inactive); in the assay with CAKI-1, 85.5 µM (inactive); in the assay on DLD-1, > 100 µM (inactive); in the assay on HCC 2998, > 100 µM (inactive); with HT-29, > 100 µM (inactive); in the assay on KM-20L2, 24.5 µM (inactive). The GI50 is 72.4 µM (inactive) in the assay on LOX IMVI; 73.5 µM (inactive) in the assay on M19-MEL; > 100 µM (inactive) in the assay with OVCAR-8; 58.3 µM (inactive) in the assay on RPMI-8226; > 100 µM (inactive) in the assay with SF-295; > 100 µM (inactive) with SN12C. In addition, the GI50 in the assay with SNB-19 was > 100 µM (inactive); in the assay with UACC-62 it was 45.7 µM (inactive).
In the case of `COC(=O)C1(C(=O)OC)CC(=O)c2cc3c(cc2-c2c(cc(OC)c(OC)c2OC)C1)OCO3`, the GI50 with CAKI-1 was > 211 µM (inactive); in the assay with DLD-1 it was > 211 µM (inactive); in the assay with HCC 2998, > 211 µM (inactive); in the assay on HOP-92, 26.8 µM (inactive); with HT-29 it was > 211 µM (inactive); with KM-20L2, > 211 µM (inactive). Moreover, the GI50 with LOX IMVI was > 211 µM (inactive); in the assay with M19-MEL, > 211 µM (inactive); in the assay with NCI-H23, > 211 µM (inactive); with OVCAR-8, 139 µM (inactive); with SF-295, 80.4 µM (inactive); in the assay on SN12C, > 211 µM (inactive). Moreover, the values for the GI50 in the assay with SNB-19 and with UACC-62 were 55.3 µM (inactive) and 109 µM (inactive), respectively.
`O=C1C(Cl)C(c2cccc(O)c2)N1n1cnc2ccccc2c1=O` (configuration not stated): the GI50 in the assay with CAKI-1 was 76 µM (inactive); in the assay on DLD-1, > 100 µM (inactive); in the assay on HCC 2998, > 100 µM (inactive); in the assay on HT-29, > 100 µM (inactive); with KM-20L2, > 100 µM (inactive); in the assay with LOX IMVI it was > 100 µM (inactive). Besides, the GI50 in the assay with M19-MEL is > 100 µM (inactive); in the assay with NCI-H23 it was > 100 µM (inactive); in the assay on OVCAR-8 it was > 100 µM (inactive); in the assay on RPMI-8226, 40.7 µM (inactive); in the assay on SF-295, > 100 µM (inactive); in the assay with SN12C it was > 100 µM (inactive). The GI50 in the assay with SNB-19 is 49.5 µM (inactive); in the assay with UACC-62 it was > 100 µM (inactive).
As to `COc1ccccc1NC(=O)C1=C(C)NC(C)=C(C(=O)Nc2ccccc2OC)C1c1ccc(C)cc1`, the GI50 in the assay on A498 was 23.3 µM (inactive); in the assay on CAKI-1, > 100 µM (inactive); in the assay on HCC 2998 it was 97.5 µM (inactive); with HOP-92, > 100 µM (inactive); with HT-29 it was > 100 µM (inactive); in the assay on KM-20L2, > 100 µM (inactive). The GI50 was > 100 µM (inactive) with LOX IMVI; 42.5 µM (inactive) in the assay with M19-MEL; 94.8 µM (inactive) in the assay with NCI-H23; 58.9 µM (inactive) with OVCAR-8; 37.8 µM (inactive) in the assay with RPMI-8226; 68.4 µM (inactive) in the assay with SF-295. For the same molecule, the GI50 in the assay on SN12C is > 100 µM (inactive); in the assay with SNB-19, > 100 µM (inactive); in the assay with UACC-62, 65.3 µM (inactive).
Turning to `O=C(Oc1ccc2c(-c3ccccc3)c(C(=O)Nc3ccc(Cl)cc3)c(=O)oc2c1)c1ccccc1`, the GI50 with DLD-1, in the assay on HT-29, in the assay on KM-20L2, with LOX IMVI, in the assay with M19-MEL and with NCI-H23 was > 100 µM (inactive) in each case. The GI50 with OVCAR-8, in the assay with RPMI-8226, with SF-295, with SN12C, in the assay on SNB-19 and in the assay on UACC-62 was > 100 µM (inactive) each time.
With `COC1=CC(=O)[C@]2(C)[C@H](C1=O)C(C)[C@H]2c1ccc(OC)cc1` (some centres not stated), the GI50 with A498, with CAKI-1, in the assay with DLD-1, in the assay with HCC 2998, with HOP-92 and with HT-29 was > 100 µM (inactive) in each case. For the same molecule, the GI50 in the assay on LOX IMVI, in the assay on M19-MEL, with NCI-H23, in the assay on OVCAR-8, with RPMI-8226 and in the assay on SF-295 was > 100 µM (inactive) throughout. Also, the GI50 in the assay with SNB-19 and in the assay on UACC-62 was > 100 µM (inactive) throughout.
On to `COC(=O)C1=C(C(=O)OC)C(C(=O)OC)C(C(=O)OC)=C1C(=O)OC`, for which the GI50 in the assay with CAKI-1, in the assay on DLD-1, in the assay on HCC 2998, in the assay on HOP-92, in the assay on HT-29 and in the assay on KM-20L2 was > 100 µM (inactive) in each case. In addition, the GI50 in the assay with LOX IMVI, in the assay on NCI-H23, with OVCAR-8, in the assay with RPMI-8226, in the assay with SF-295 and in the assay on SN12C was > 100 µM (inactive) in each case. The GI50 in the assay on SNB-19 and in the assay on UACC-62 was > 100 µM (inactive) in each case.
For the molecule `Nc1nc(O)c2[nH]nnc2n1` [8-AZAGUANINE], the GI50 in the assay with A498 was 11.6 µM (inactive); in the assay with CAKI-1, 0.304 µM (active); with DLD-1, 20 µM (inactive); with HCC 2998 it was 19.2 µM (inactive); in the assay on HOP-92, 0.757 µM (active); in the assay with HT-29, 26.1 µM (inactive). Also, the GI50 was 0.906 µM (active) in the assay with Hs-578T; 9.2 µM (inactive) in the assay with KM-20L2; 0.223 µM (active) with LOX IMVI; 40.8 µM (inactive) in the assay with MCF7; 25.1 µM (inactive) in the assay with NCI-H23; 0.551 µM (active) in the assay on OVCAR-8. For the same molecule, the GI50 in the assay with PC-3 was 0.855 µM (active); with RPMI-8226, 0.234 µM (active); in the assay with SF-295, 3.11 µM (inactive); in the assay on SN12C, 0.334 µM (active); in the assay with SNB-19, 42.7 µM (inactive); in the assay with T47D it was 3.44 µM (inactive). For the same molecule, the GI50 in the assay with UACC-62 is 0.372 µM (active).
